# Assay: Inverse agonist activity at GPR55 in human MDA-MB-231 cells assessed as reduction in cell viability incubated for 24 hrs by MTT assay
row,SMILES,EC50 [µM]
1,O=C1C(Cl)=C(N2CCCCC2)C(=O)c2c(O)ccc(O)c21,1.6
2,CCN(CC)C1=C(Cl)C(=O)c2c(O)ccc(O)c2C1=O,> 20
3,CCCCN(CCCC)C1=C(Cl)C(=O)c2c(O)ccc(O)c2C1=O,> 20
4,COc1ccc(OC)c2c1C(=O)C(Cl)=C(N1CCCCC1)C2=O,> 10
5,COc1ccc(OC)c2c1C(=O)C(Cl)=C(N1CCOCC1)C2=O,> 10
6,O=C1C(Cl)=C(N2CCCC2)C(=O)c2c(O)ccc(O)c21,> 10
7,O=C1C(Cl)=C(N2CCOCC2)C(=O)c2c(O)ccc(O)c21,2.7
8,"COc1ccc(OC)c2c1C(=O)C(Cl)=C(Cl)C2=O [2,3-Dichloro-5,8-dimethoxy-[1,4]naphthoquinone]",> 20

# — BindingDB's records for doi:10.1021/acsmedchemlett.8b00333 (University of Calabria, 2019)
